According to patent US20220031690A1, “ANTI-NEURODEGENERATIVE DISEASE AGENT” (Hayashibara Co., Ltd., priority 2018, published 2022):

Tests used:
PC12-HS cells [1] = assay: Evaluation method B: neurite-outgrowth promoting activity in the presence of NGF; format: cell-based, rat; conditions: for Action on PC12-HS neurite-outgrowth promotion (500 ng/ml) / Neurite-outgrowth rate (%): NGF 10 ng/ml; for Action on PC12-HS neurite-outgrowth promotion (500 ng/ml): 3 days, class of neurite-outgrowth rate
Text: (§1) As a model of the nerve cell, the NGF (nerve growth factor) highly sensitive strain of PC12 cell derived from the rat adrenal pheochromocytoma (hereinafter referred to as “PC12-HS cell”; JCRB cell bank, National Research and Development Institute of Health and Nutrition), which has been widely used as a suitable model for research on human neurodegenerative disease, was used. As the test compound, […] of trimethine cyanine dye compounds; NK-5 (Chemical formula 2), NK-36 (Chemical formula 3), NK-44 (Chemical formula 5) and dye compounds represented by Chemical formulae 12 to 18, and NK-6 (Chemical formula 7), which is a monomethine cyanine dye, were selected. In addition, two kinds of ethylene cross-linked dyes (Chemical formulae 19 and 20), 15 kinds of monomethine cyanine dyes (Chemical formulae 21 to 35), and seven kinds of trimethine cyanine dyes (Chemical formulae 36 to 42), which were expected to have a good neurocyte growth acceleration activity and/or neurite-outgrowth promoting activity in the screening disclosed in Patent literature 6, were also re-evaluated for comparison. The Chemical formulae 12 to 42 are shown below.
(§2) The cyanine dye compounds subjected to the test (purity 97% by mass or more, synthesized by Hayashibara Co., Ltd., Okayama, Japan) were individually dissolved in DMSO (product number “D8418”, commercialized by SIGMA Corporation) at a concentration of 5 mg/ml, and the solutions were then filtered through DMSO-resistant membrane (“Millex-LGS LLG025SS”, commercialized by Millipore Corporation) and stored at 25° C. in a dark condition. At the time of use, they were further diluted with Dulbecco's Medium (hereinafter, abbreviated as “D-MEM medium”, commercialized by Nissui Pharmaceutical Co., Ltd.) supplemented by 10% by volume of fetal bovine serum (FBS), and subjected to the test.
As in the case of evaluation of neurocyte growth accelerating activity (Evaluation method A), 50 μl/well of each test compound solution, prepared by diluting with the culture medium to give a final concentration of 500 ng/ml, and the culture medium containing 20 ng/ml of mouse NGF (mouse derived, final concentration 10 ng/ml, commercialized by Chemicon International, Inc., CA, USA) (50 μl/well) were added to the precultured PC12-HS cells in each well, and then cultured for three days. Culture medium was removed on day 3 of culture, and cells were fixed by adding 100 μl/well of 10% by volume of glutaraldehyde and standing for 20 minutes at room temperature. As a negative control, PC12-HS cells, cultured for three days with culture medium, were fixed with glutaraldehyde similarly as above. Fixed cells were observed under a microscope to assess the neurite-outgrowth. The neurite-outgrowth rate (%) was determined by observing the cells using a microscope by adjusting the magnitude to give about 100 cells in one visual field, counting the number of cells having neurites twice or more in length of the cell body (major axis), dividing by the total number of cells in the same visual field, and multiplying by 100. Measurements were carried out at three points for each test compound. […] In this experiment, the neurite-outgrowth rate was 5% or less when NGF was added (final concentration 10 ng/ml) without the addition of the test compound.
The method was based on Experiment 1-1, except the concentrations of the test compounds were set to three doses of 40 nM, 200 nM and 1,000 nM for evaluation method A (neurocyte growth accelerating effect), and two doses of 200 nM and 1,000 nM for evaluation method B (neurite outgrowth promoting effect). Measurements were performed in triplicate for each concentration of each test compound in both evaluation methods A and B. The result of the evaluation method A was expressed as a cell proliferation rate (%) by determined a relative percentage (%) when the value of the negative control to which the test compound was not added, was regarded as 100%. […]

PC12-HS cells [2] = assay: Evaluation method A: neurocyte growth acceleration activity (Alamar blue); format: cell-based, rat; conditions: for Action on PC12-HS growth acceleration (50 ng/ml): 3 days culture, class of cell proliferation rate vs negative control = 100%; for Cell proliferation rate (%): negative control = 100%; for neurocyte growth acceleration activity (in words): 40, 200 and 1,000 nM, comment on Table 2
Text: as §1, §2
PC12-HS cells were subjected to tests after frozen stock cultured cells were thawed and cultured with a D-MEM medium supplemented with 10% by volume of FBS (Hereinafter, when the term “culture” is simply used, it means that the cells are statically cultured in an incubator controlled at 37° C. under 5% by volume of CO2 conditions). Cells used in the test were collected using 0.25% by weight of trypsin solution, then diluted with a D-MEM medium supplemented with 10% by volume of FBS (hereinafter referred to as “culture medium”), seeded into collagen-coated 96-well plates (commercialized by Falcon, Tokyo, Japan, “Microtest Plate, Cell Culture, Flat Bottom”) to obtain 5×10^3 cells/100 μl/well, and cultured for 24 hours (hereinafter referred to as “pre-culture”). Then, the above test samples were diluted with a culture medium, and 100 μl of diluted solution of the test compounds were added to each well so that the final concentration of the test compounds in the wells became 50 ng/ml, and the cells were cultured for another three days. On day 3, the cultures supernatant was removed from each well, 200 μl of culture medium containing 10% by volume of Alamar blue reagents (commercialized by Trek Diagnostic Systems Inc., Ohio, USA) were added to each well, and the cells were cultured for 6 hours. After culturing for 6 hours, the cells were measured for fluorescent intensity at a wavelength of 544-590 nm by “FlexStation 3”, a product name of a fluorescent plate reader (commercialized by Japan Molecular Devices Corporation, Tokyo, Japan). […] Measurements were performed for each test compound in triplicate, and the mean values were shown.
The method was based on Experiment 1-1, except the concentrations of the test compounds were set to three doses of 40 nM, 200 nM and 1,000 nM for evaluation method A (neurocyte growth accelerating effect), and two doses of 200 nM and 1,000 nM for evaluation method B (neurite outgrowth promoting effect). […]

SMILES: CCN1C(C)=CSC1=CC=Cc1scc(C)[n+]1CC.[I-] [NK-67]
- Action on PC12-HS neurite-outgrowth promotion (500 ng/ml) (PC12-HS cells [1]): ◯ (When the mean neurite-outgrowth rate was 25 to 44%, it was judged to be equivalent to the positive control NK-4 (“circle”))

SMILES: CCN1C(=CC=Cc2cc[n+](CC)c3ccccc23)Oc2ccccc21.[I-] [NK-741]
- Action on PC12-HS neurite-outgrowth promotion (500 ng/ml) (PC12-HS cells [1]): ◯ (When the mean neurite-outgrowth rate was 25 to 44%, it was judged to be equivalent to the positive control NK-4 (“circle”))

SMILES: CCN1C(=O)/C(=C\C=C\c2sc(=S)n(CC)c2O)SC1=S [NK-1451]
- Action on PC12-HS growth acceleration (50 ng/ml) (PC12-HS cells [2]): ◯ (the relative value of 130% to 169% was judged to be equivalent to NK-4 (“circle”))

SMILES: CC(=Cc1oc2ccccc2[n+]1C)C=C1Oc2ccccc2N1C.[I-] [NK-1300]
- Action on PC12-HS neurite-outgrowth promotion (500 ng/ml) (PC12-HS cells [1]): ◯ (When the mean neurite-outgrowth rate was 25 to 44%, it was judged to be equivalent to the positive control NK-4 (“circle”))

SMILES: CC1=NN(c2ccccc2)C(=O)/C1=C\c1ccccc1 [NK-1076]
- Action on PC12-HS growth acceleration (50 ng/ml) (PC12-HS cells [2]): ◯ (the relative value of 130% to 169% was judged to be equivalent to NK-4 (“circle”))

SMILES: CC1=NN(c2ccccc2)C(=O)/C1=C\c1ccc(N(C)C)cc1 [NK-1107]
- Action on PC12-HS growth acceleration (50 ng/ml) (PC12-HS cells [2]): ◯ (the relative value of 130% to 169% was judged to be equivalent to NK-4 (“circle”))

SMILES: CC1(C)C(=CC=CC2=[N+](CCO)c3ccccc3C2(C)C)N(CCO)c2ccccc21.[Br-] [NK-1883]
- Cell proliferation rate (%) (PC12-HS cells [2]; 1.000 nM): 87.5%
- Cell proliferation rate (%) (PC12-HS cells [2]; 40 nM): 104.8%
- Cell proliferation rate (%) (PC12-HS cells [2]; 200 nM): 105.1%
- neurocyte growth acceleration activity (in words) (PC12-HS cells [2]): almost no growth acceleration activity
- Neurite-outgrowth rate (%) (PC12-HS cells [1]; 1.000 nM): 13.3%
- Neurite-outgrowth rate (%) (PC12-HS cells [1]; 200 nM): 13.3%

SMILES: CCCCCCCN1C(C)=CSC1=Cc1scc(C)[n+]1CCCCCCC.[I-] [NK-266]
- Action on PC12-HS neurite-outgrowth promotion (500 ng/ml) (PC12-HS cells [1]): ◯ (When the mean neurite-outgrowth rate was 25 to 44%, it was judged to be equivalent to the positive control NK-4 (“circle”))

SMILES: CCN1C(=CC(C)=Cc2sc3ccccc3[n+]2CCCS(=O)(=O)[O-])Sc2ccccc21 [NK-4781]
- Cell proliferation rate (%) (PC12-HS cells [2]; 1.000 nM): 89.1%
- Cell proliferation rate (%) (PC12-HS cells [2]; 40 nM): 110.0%
- Cell proliferation rate (%) (PC12-HS cells [2]; 200 nM): 106.6%
- neurocyte growth acceleration activity (in words) (PC12-HS cells [2]): almost no growth acceleration activity
- Neurite-outgrowth rate (%) (PC12-HS cells [1]; 1.000 nM): 88.3%
- Neurite-outgrowth rate (%) (PC12-HS cells [1]; 200 nM): 31.2%
- Action on PC12-HS neurite-outgrowth promotion (500 ng/ml) (PC12-HS cells [1]): ⊚ (45% or more was judged to be more potent than NK-4 (“double circle”))
- neurite-outgrowth promoting activity (in words) (PC12-HS cells [1]; 200 and 1,000 nM, comment on Table 2): stronger neurite-outgrowth promoting activity than NK-4

SMILES: Cc1ccc2c(c1)SC(=Cc1sc3cc(C)ccc3[n+]1C)N2C.[I-] [NK-594]
- Action on PC12-HS neurite-outgrowth promotion (500 ng/ml) (PC12-HS cells [1]): ◯ (When the mean neurite-outgrowth rate was 25 to 44%, it was judged to be equivalent to the positive control NK-4 (“circle”))

SMILES: O=C1/C(=C\C=C\c2sc3ccccc3c2O)Sc2ccccc21 [NK-1741]
- Action on PC12-HS growth acceleration (50 ng/ml) (PC12-HS cells [2]): ◯ (the relative value of 130% to 169% was judged to be equivalent to NK-4 (“circle”))

SMILES: CC1=CO/C(=C\C=C\c2occ(C)[n+]2C)N1C.F[P-](F)(F)(F)(F)F [NK-10089]
- Cell proliferation rate (%) (PC12-HS cells [2]; 1.000 nM): 91.6%
- Cell proliferation rate (%) (PC12-HS cells [2]; 40 nM): 110.6%
- Action on PC12-HS growth acceleration (50 ng/ml) (PC12-HS cells [2]): ◯ (the relative value of 130% to 169% was judged to be equivalent to NK-4 (“circle”))
- Cell proliferation rate (%) (PC12-HS cells [2]; 200 nM): 123.4%
- neurocyte growth acceleration activity (in words) (PC12-HS cells [2]): slightly weaker activity than NK-6 and NK-36
- Neurite-outgrowth rate (%) (PC12-HS cells [1]; 1.000 nM): 29.3%
- Neurite-outgrowth rate (%) (PC12-HS cells [1]; 200 nM): 0.0%

SMILES: CCCCN1C(C)=CSC1=Cc1scc(C)[n+]1CCCC.[I-] [NK-399]
- Action on PC12-HS neurite-outgrowth promotion (500 ng/ml) (PC12-HS cells [1]): ◯ (When the mean neurite-outgrowth rate was 25 to 44%, it was judged to be equivalent to the positive control NK-4 (“circle”))

SMILES: CCN1C(=Cc2ccc3ccccc3[n+]2CC)C=Cc2ccccc21.[Br-] [NK-1046]
- Action on PC12-HS neurite-outgrowth promotion (500 ng/ml) (PC12-HS cells [1]): ◯ (When the mean neurite-outgrowth rate was 25 to 44%, it was judged to be equivalent to the positive control NK-4 (“circle”))

SMILES: CCN1C(=Cc2sc3ccccc3[n+]2CC)Sc2ccccc21.[Br-] [NK-1560]
- Action on PC12-HS neurite-outgrowth promotion (500 ng/ml) (PC12-HS cells [1]): ◯ (When the mean neurite-outgrowth rate was 25 to 44%, it was judged to be equivalent to the positive control NK-4 (“circle”))

SMILES: CCN1C(=Cc2oc3ccccc3[n+]2CC)Oc2ccccc21.[I-] [NK-863]
- Action on PC12-HS neurite-outgrowth promotion (500 ng/ml) (PC12-HS cells [1]): ◯ (When the mean neurite-outgrowth rate was 25 to 44%, it was judged to be equivalent to the positive control NK-4 (“circle”))

SMILES: CN1C(=CC2=[N+](C)c3ccccc3C2(C)C)Oc2ccccc21.[I-] [NK-1684]
- Action on PC12-HS neurite-outgrowth promotion (500 ng/ml) (PC12-HS cells [1]): ◯ (When the mean neurite-outgrowth rate was 25 to 44%, it was judged to be equivalent to the positive control NK-4 (“circle”))

SMILES: O=C1/C(=C\c2ccccc2)SC(=S)N1c1ccccc1 [NK-1075]
- Action on PC12-HS growth acceleration (50 ng/ml) (PC12-HS cells [2]): ◯ (the relative value of 130% to 169% was judged to be equivalent to NK-4 (“circle”))

SMILES: CCN1C(=Cc2cc[n+](CC)c3ccccc23)C=Cc2ccccc21.[I-] [NK-276]
- Action on PC12-HS neurite-outgrowth promotion (500 ng/ml) (PC12-HS cells [1]): ◯ (When the mean neurite-outgrowth rate was 25 to 44%, it was judged to be equivalent to the positive control NK-4 (“circle”))

SMILES: CCN1C(=CC=Cc2sc3ccc4ccccc4c3[n+]2CC)Sc2ccc3ccccc3c21.[I-] [NK-382]
- Action on PC12-HS neurite-outgrowth promotion (500 ng/ml) (PC12-HS cells [1]): ◯ (When the mean neurite-outgrowth rate was 25 to 44%, it was judged to be equivalent to the positive control NK-4 (“circle”))

SMILES: CN1C(=CC2=[N+](C)c3ccccc3C2(C)C)Sc2ccccc21.[I-] [NK-1570]
- Action on PC12-HS neurite-outgrowth promotion (500 ng/ml) (PC12-HS cells [1]): ◯ (When the mean neurite-outgrowth rate was 25 to 44%, it was judged to be equivalent to the positive control NK-4 (“circle”))

SMILES: CCN1C(=Cc2oc3ccccc3[n+]2CC)Sc2ccccc21.[I-] [NK-1049]
- Action on PC12-HS neurite-outgrowth promotion (500 ng/ml) (PC12-HS cells [1]): ◯ (When the mean neurite-outgrowth rate was 25 to 44%, it was judged to be equivalent to the positive control NK-4 (“circle”))

SMILES: CC[n+]1ccccc1C=Cc1ccc(N(C)C)cc1.[I-] [NK-557]
- Action on PC12-HS neurite-outgrowth promotion (500 ng/ml) (PC12-HS cells [1]): ◯ (When the mean neurite-outgrowth rate was 25 to 44%, it was judged to be equivalent to the positive control NK-4 (“circle”))
